# Patent US10174040B2, “Pyrrolopyrimidine compound or salt thereof and compositions containing the pyrrolopyrimidine compound or salt thereof” (TAIHO PHARMACEUTICAL CO., LTD., priority 2014, dated 2019)
# How the values were obtained:
# [1] = tested on: human acute lymphoblastic leukemia (ALL) CCRF-CEM cell lines; assay: Antitumor effect on tumor cells transplanted into mice 3 (CCRF-CEM, tumor volume); assay type: in vivo, BALB/cAJcl-nu/nu mice (nude mice); conditions: Dunnett's test; CCRF-CEM in nude mice; compound hydrochlorides, intravenous
# Description: (§1) The length and the width of the implanted tumor and the body weight were measured. The tumor volume (TV) was calculated using the following equation (equation D). TV (mm3)=(length×width^2)/2, wherein the unit of length and width is mm (equation D).
# (§2) Thereafter, the length and the width of the tumor and the body weight (BWn) on day n were measured over time in the same manner, and the TVn of each mouse was calculated. Further, the relative tumor volume (RTVn) was calculated based on the TVn of each mouse using the following equation (equation E); the treatment/control (T/C) value (%) was calculated based on the mean RTVn of each drug administration group using the following equation (equation F); and the weight change rate (BWCn) was calculated using the following equation (equation G). RTVn=TVn/TV1 (equation E) T/Cn(%)=(mean RTV of each drug administration group on the last day of the test)/(mean RTV of the control group on the last day of the test)×100 (equation F) BWCn (%)=(BWn−BW1)/BW1×100 (equation G) FIGS. 1 and 2, and Table 21 below show the results.
# (§3) The tumor growth inhibitory effects on human tumors were evaluated as in Test Example 5, except that the compound hydrochloride obtained in Example 122, the compound hydrochloride (Example 64), and human acute lymphoblastic leukemia (ALL) CCRF-CEM cell lines were used, and the animals were assigned to each group in accordance with a stratified randomization procedure when the TV reached 140 to 380 mm3.
# At this time, the cell lines were washed in PBS, and suspended in 50% PBS and 50% Matrigel basement membrane matrix (#356237; produced by BD Biosciences) at a concentration of 1×10^8 cells/mL. 0.1 mL of this cell suspension was subcutaneously implanted to the right chest of 6-week-old BALB/cAJcl-nu/nu mice (nude mice) (produced by CLEA Japan, Inc.). The compound hydrochloride (Example 122) was intravenously administered in an amount of 5 mL per 1 kg of body weight on days 1 and 8, and the compound hydrochloride (Example 133) was intravenously administered in an amount of 5 mL per 1 kg of body weight on days 1 and 8.
# [2] = Body weight change, antitumor test 3 (CCRF-CEM mice); assay type: in vivo, BALB/cAJcl-nu/nu mice (nude mice); conditions: for change of the body weight compared with the control: CCRF-CEM nude mice, Test Example 7
# Description: as §1, §2, §3
# At this time, the cell lines were washed in PBS, and suspended in 50% PBS and 50% Matrigel basement membrane matrix (#356237; produced by BD Biosciences) at a concentration of 1×10^8 cells/mL. 0.1 mL of this cell suspension was subcutaneously implanted to the right chest of 6-week-old BALB/cAJcl-nu/nu mice (nude mice) (produced by CLEA Japan, Inc.). […]
# [3] = biological target: NAE (heterodimer of APPBP1 and UBA3) (Homo sapiens (Human), UniProt Q8TBC4); assay: Nedd8 conjugation inhibitory activity (AlphaScreen assay); assay type: biochemical; conditions: purified NAE, GST-UBC12, Biotin-Nedd8, ATP
# [4] = tested on: Human colon cancer HCT-116 cell lines; assay: Antitumor effect on tumor cells transplanted into mice 1 (HCT-116, tumor volume); assay type: in vivo, BALB/cAJcl-nu/nu mice; conditions: HCT-116 in nude mice; for RTV15 comparison with control: Dunnett's test
# Description: (§4) Human colon cancer HCT-116 cell lines were washed in PBS and suspended at a concentration of 4×10^7 cells/mL. 0.1 mL of this cell suspension was subcutaneously implanted in the right chest of 6-week-old BALB/cAJcl-nu/nu mice (produced by CLEA Japan, Inc.).
# as §1
# (§5) When the TV reached 100 to 300 mm3, the animals were assigned to each group in accordance with a stratified randomization procedure. The day was considered day 1, the TV on the day was considered TV1, and the body weight on the day was considered BW1.
# (§6) A required amount of the test compound was weighed to prepare an administration solution.
# as §2
# [5] = Body weight change, antitumor test 1 (HCT-116 mice); assay type: in vivo, BALB/cAJcl-nu/nu mice
# Description: as §4, §1, §5, §6
# as §2, with “RTVn=TVn/TV1 (equation E) T/Cn(%)=(mean RTV of each drug administration group on the last day of the test)/(mean RTV of the control group on the last day of the test)×100 (equation F) BWCn (%)=(BWn−BW1)/BW1×100 (equation G) FIGS. 1 and 2, and Table 21 below show the results.” left out
# [6] = tested on: human multiple myeloma U266B1 cell line; assay: Cell growth inhibition 2 (CellTiter-Glo), U266B1; assay type: cell-based; conditions: 384-well plate
# [7] = tested on: human diffuse large B-cell lymphoma DB cell line; assay: Cell growth inhibition 2 (CellTiter-Glo), DB; assay type: cell-based; conditions: 384-well plate
# [8] = tested on: human prostate cancer LNCAP.FGC cell line; assay: Cell growth inhibition 2 (CellTiter-Glo), LNCAP.FGC; assay type: cell-based; conditions: 384-well plate
# [9] = tested on: human acute T lymphoblastic leukemia CCRF-CEM cell lines; assay: Cell growth inhibition 1 (CellTiter-Glo), CCRF-CEM; assay type: cell-based; conditions: 72 hours culture with compound
# [10] = tested on: human lung cancer A-427 cell line; assay: Cell growth inhibition 2 (CellTiter-Glo), A-427; assay type: cell-based; conditions: 384-well plate
# [11] = tested on: human skin cancer A-431 cell line; assay: Cell growth inhibition 2 (CellTiter-Glo), A-431; assay type: cell-based; conditions: 384-well plate
# carbonic anhydrase II = carbonic anhydrase II (Homo sapiens (Human), UniProt P00918); assay: Carbonic anhydrase II enzyme activity inhibition (4-NPA esterase activity); assay type: biochemical
# [12] = tested on: human breast cancer MDA-MB-453 cell line; assay: Cell growth inhibition 2 (CellTiter-Glo), MDA-MB-453; assay type: cell-based; conditions: 384-well plate
# [13] = tested on: human pancreatic cancer Capan-1 cell line; assay: Cell growth inhibition 2 (CellTiter-Glo), Capan-1; assay type: cell-based; conditions: 384-well plate
# [14] = tested on: human colon cancer HCT116 cell line; assay: Cell growth inhibition 2 (CellTiter-Glo), HCT116; assay type: cell-based; conditions: HCT-116, 384-well plate
# [15] = tested on: human acute leukemia MV-4-11 cell line; assay: Cell growth inhibition 2 (CellTiter-Glo), MV-4-11; assay type: cell-based; conditions: MV4-11, 384-well plate
# [16] = tested on: Human colon cancer HCT-116 cell lines; assay: Antitumor effect on tumor cells transplanted into mice 2 (HCT-116, tumor volume); assay type: in vivo, BALB/cAJcl-nu/nu mice; conditions: Dunnett's test; HCT-116 in nude mice; hydrochloride compound of Example 55
# [17] = Body weight change, antitumor test 2 (HCT-116 mice); assay type: in vivo, BALB/cAJcl-nu/nu mice; conditions: HCT-116 xenograft in nude mice, 120 mg/kg/day, administration days 1, 4, 8, 11, day 15
# [18] = tested on: human osteo- and soft tissue sarcoma SJCRH30 cell line; assay: Cell growth inhibition 2 (CellTiter-Glo), SJCRH30; assay type: cell-based; conditions: 384-well plate
# Chain of NAE (heterodimer of APPBP1 and UBA3) (Q8TBC4 whole entry): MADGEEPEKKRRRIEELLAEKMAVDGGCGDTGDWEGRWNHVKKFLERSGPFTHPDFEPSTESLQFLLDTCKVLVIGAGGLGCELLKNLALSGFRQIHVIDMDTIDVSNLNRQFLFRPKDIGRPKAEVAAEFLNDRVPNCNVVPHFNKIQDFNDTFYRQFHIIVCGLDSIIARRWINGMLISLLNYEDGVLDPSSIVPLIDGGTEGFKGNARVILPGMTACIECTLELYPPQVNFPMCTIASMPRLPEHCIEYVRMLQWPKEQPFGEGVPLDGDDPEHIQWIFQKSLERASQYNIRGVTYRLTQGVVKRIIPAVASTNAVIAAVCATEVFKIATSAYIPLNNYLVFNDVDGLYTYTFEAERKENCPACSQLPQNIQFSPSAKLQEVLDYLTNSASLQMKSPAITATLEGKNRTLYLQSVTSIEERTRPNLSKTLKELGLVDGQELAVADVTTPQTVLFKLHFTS
# Chain of NAE (heterodimer of APPBP1 and UBA3) (Q13564 whole entry partner): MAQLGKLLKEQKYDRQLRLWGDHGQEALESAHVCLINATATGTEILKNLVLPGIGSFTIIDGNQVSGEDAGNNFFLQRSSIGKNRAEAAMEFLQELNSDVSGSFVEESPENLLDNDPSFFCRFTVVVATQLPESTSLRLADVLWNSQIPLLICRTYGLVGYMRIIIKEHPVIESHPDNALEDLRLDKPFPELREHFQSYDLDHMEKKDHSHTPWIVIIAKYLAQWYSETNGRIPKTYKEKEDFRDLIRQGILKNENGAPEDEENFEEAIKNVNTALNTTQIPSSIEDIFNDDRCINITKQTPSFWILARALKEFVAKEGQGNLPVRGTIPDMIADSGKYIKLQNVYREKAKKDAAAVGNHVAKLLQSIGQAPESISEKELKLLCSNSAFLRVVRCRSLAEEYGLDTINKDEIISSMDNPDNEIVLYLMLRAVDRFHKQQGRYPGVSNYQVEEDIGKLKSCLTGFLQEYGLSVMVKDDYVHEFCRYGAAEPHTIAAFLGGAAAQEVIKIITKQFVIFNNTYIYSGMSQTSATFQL
smiles,measurement,setting,value
"CN1CCOc2c1ccc(F)c2C#Cc1cn([C@@H]2O[C@H](CNS(N)(=O)=O)[C@@H](O)[C@H]2O)c2ncnc(N)c12 [Example 64, 8-[2-[4-Amino-7-[(2R,3R,4S,5R)-3,4-dihydroxy-5-[(sulfamoylamino)methyl]tetrahydrofuran-2-yl]pyrrolo[2,3-d]pyrimidin-5-yl]ethynyl]-7-fluoro-4-methyl-2,3-dihydro-1,4-benzoxazine]",RTV comparison with Comparative Example,[1],significantly lower than that of the Comparative Example
same,RTV comparison with control on day 15,[1],significantly lower than that of the control
"Nc1ncnc2c1c(C#Cc1c(F)cc(N3CC[C@@H](O)C3)cc1F)cn2[C@@H]1C[C@H](CNS(N)(=O)=O)[C@@H](O)[C@H]1O [Example 120, 4-Amino-5-[2-[2,6-difluoro-4-[(3R)-3-hydroxypyrrolidin-1-yl]phenyl]ethynyl]-7-[(1R,2S,3R,4R)-2,3-dihydroxy-4-[(sulfamoylamino)methyl]cyclopentyl]pyrrolo[2,3-d]pyrimidine]",RTV comparison with control on day 15,[1],significantly lower than that of the control
same,change of the body weight compared with the control,[2],almost the same as that of the control
"Nc1ncnc2c1c(C#Cc1c(F)cccc1F)cn2[C@@H]1C=C(CNS(N)(=O)=O)[C@@H](O)[C@H]1O [Example 128, 4-Amino-5-[2-(2,6-difluorophenyl)ethynyl]-7-[(1R,4R,5S)-4,5-dihydroxy-3-[(sulfamoylamino)methyl]cyclopent-2-en-1-yl]pyrrolo[2,3-d]pyrimidine]",IC50,[3],0.0033 µM
"Nc1ncnc2c1c(C#Cc1c(F)cccc1F)cn2[C@@H]1O[C@H](CNS(N)(=O)=O)[C@@H](O)[C@H]1O [Example 1, 4-Amino-5-[2-(2,6-difluorophenyl)ethynyl]-7-[(2R,3R,4S,5R)-3,4-dihydroxy-5-[(sulfamoylamino)methyl]tetrahydrofuran-2-yl]pyrrolo[2,3-d]pyrimidine]",RTV comparison with Comparative Example,[4]; Aspin-Welch's t-test,significantly lower than that of the Comparative Example
same,RTV15 comparison with control,[4],significantly lower than that of the control
same,change of the body weight compared with the control,"[5]; HCT-116 nude mice, Test Example 5",within an acceptable degree
"Nc1ncnc2c1c(C#Cc1cccc3ccccc13)cn2[C@@H]1O[C@H](COS(N)(=O)=O)[C@@H](O)[C@H]1O [Example 133, [(2R,3S,4R,5R)-5-[4-Amino-5-[2-(1-naphthyl)ethynyl]pyrrolo[2,3-d]pyrimidin-7-yl]-3,4-dihydroxy-tetrahydrofuran-2-yl]methyl sulfamate]",RTV comparison with control on day 15,[1],significantly lower than that of the control
same,change of the body weight compared with the control,[2],almost the same as that of the control
"Nc1ncnc2c1c(C#Cc1c(F)cc(N3CC[C@H](F)C3)cc1F)cn2[C@@H]1C[C@H](CNS(N)(=O)=O)[C@@H](O)[C@H]1O [Example 116, 4-Amino-5-[2-[2,6-difluoro-4-[(3S)-3-fluoropyrrolidin-1-yl]phenyl]ethynyl]-7-[(1R,2S,3R,4R)-2,3-dihydroxy-4-[(sulfamoylamino)methyl]cyclopentyl]pyrrolo[2,3-d]pyrimidine]",IC50,[3],0.0051 µM
"CN1CCOc2c1ccc(F)c2C#Cc1cn([C@@H]2C[C@H](CNS(N)(=O)=O)[C@@H](O)[C@H]2O)c2ncnc(N)c12 [Example 122, 8-[2-[4-amino-7-[(1R,2S,3R,4R)-2,3-dihydroxy-4-[(sulfamoylamino)methyl]cyclopentyl]pyrrolo[2,3-d]pyrimidin-5-yl]ethynyl]-7-fluoro-4-methyl-2,3-dihydro-1,4-benzoxazine]",RTV comparison with Comparative Example,[1],significantly lower than that of the Comparative Example
same,RTV comparison with control on day 15,[1],significantly lower than that of the control
"Nc1ncnc2c1c(C#Cc1c(F)cc(N3CC[C@H](O)C3)cc1F)cn2[C@@H]1C[C@H](CNS(N)(=O)=O)[C@@H](O)[C@H]1O [Example 121, 4-Amino-5-[2-[2,6-difluoro-4-[(3S)-3-hydroxypyrrolidin-1-yl]phenyl]ethynyl]-7-[(1R,2S,3R,4R)-2,3-dihydroxy-4-[(sulfamoylamino)methyl]cyclopentyl]pyrrolo[2,3-d]pyrimidine]",IC50,[3],0.0062 µM
"NS(=O)(=O)OC[C@@H]1C[C@@H](n2ccc3c(N[C@H]4CCc5ccccc54)ncnc32)C[C@@H]1O [Comparative Example, N-[(1S)-1-indanyl]-7-[(1R)-3α-hydroxy-4α-(sulfamoyloxymethyl)cyclopentyl]-7H-pyrrolo[2,3-d]pyrimidin-4-amine]",IC50,[6],1.4 µM
same,IC50,[7],0.56 µM
same,IC50,[8],0.41 µM
same,IC50,[9],0.089 µM
same,IC50,[10],0.18 µM
same,IC50,[11],0.75 µM
same,RTV comparison with control on day 15,[1],significantly lower than that of the control
same,IC50,"carbonic anhydrase II; 4-nitrophenyl acetate esterase activity, absorbance at 405 nm",0.012 µM
same,inhibitory activity against carbonic anhydrase II,carbonic anhydrase II; summary in words of Table 18,exhibited inhibitory activity against carbonic anhydrase II
same,IC50,[12],1.9 µM
same,RTV15 comparison with control,[4],significantly lower than that of the control
same,IC50,[13],1.5 µM
same,IC50,[14],0.089 µM
same,IC50,[15],0.11 µM
same,RTV15 comparison with control,[16],significantly lower than that of the control
same,BWC15 (%) Mean ± SD,[17],−8.4 ± 3.2%
same,IC50,[18],> 10 µM
same,BWC15 (%) Mean ± SD,"[5]; body weight change rate day 15, dose 120 mg/kg/day intravenous, administration day 1, 4, 8, 11",−14.3 ± 5.1%
same,BWC15 (%) Mean ± SD,"[2]; CCRF-CEM xenograft in nude mice, 120 mg/kg/day i.v., administration days 1, 4, 8, 11, day 15",6.1 ± 2.6%
